According to patent US20250127906A1, “SMALL-MOLECULE DEGRADERS OF CDK8 AND CDK19” (University of South Carolina, priority 2021, published 2025):

Each compound was assayed against CDK8 (Homo sapiens, UniProt P49336) (assay: CDK8 degradation in HEK-293 cells (Western blot, normalized by GAPDH)). Conditions: HEK-293; HP8580 200 nM and 1 μM, pomalidomide 5 μM, Senexin C 5 μM.
Type: cell-based
Parameters: endogenous in cells; host or cells: HEK-293
Protocol: Table 1 presents the structures of 35 different chimeras that have been synthesized, together with their effects (at 1 μM or 0.3 μM concentrations) on CDK8 degradation in HEK-293 cells. The synthesis schemes of all the compounds are described below. CDK8 degradation was measured by Western blot analysis of RIPA lysates of HEK-293cells treated with or without the test compound for 24 hours, using antibodies against CDK8 (Santa Cruz sc-1521) and housekeeping protein GAPDH (Santa Cruz sc-32233) (loading control) Protein bands on immunoblotted PVDF membranes were visualized with Western Lighting Plus ECL detection reagent (Perkin Elmer, Waltham, MA, USA) using ChemiDoc Touch™ (Bio-Rad). Image processing and densitometry analysis were performed using ImageLab software (Bio-Rad) to quantify the CDK8 protein levels (normalized by GAPDH) and evaluate the effects of compound treatment.
FIGS. 2F and 2G show the effects of different concentrations of potent Senexin C- and BI-1347-based PROTACs on CDK8 and CDK19 degradation in HEK-293cells. Based on these assays, we calculated DC50 values that correspond to PROTAC concentrations inducing degradation of CDK8 and CDK19 to the half of protein level in untreated cells. The corresponding CDK8 DC50 values were 46 nM for IA7843, 6.6 nM for IA7882 and 2.8 nM for IA7886, and CDK19 DC50 values were 1 μM for IA7843, 25 nM for IA7882 and 10 nM for IA7886.

CDK8, sequence (P49336 whole entry): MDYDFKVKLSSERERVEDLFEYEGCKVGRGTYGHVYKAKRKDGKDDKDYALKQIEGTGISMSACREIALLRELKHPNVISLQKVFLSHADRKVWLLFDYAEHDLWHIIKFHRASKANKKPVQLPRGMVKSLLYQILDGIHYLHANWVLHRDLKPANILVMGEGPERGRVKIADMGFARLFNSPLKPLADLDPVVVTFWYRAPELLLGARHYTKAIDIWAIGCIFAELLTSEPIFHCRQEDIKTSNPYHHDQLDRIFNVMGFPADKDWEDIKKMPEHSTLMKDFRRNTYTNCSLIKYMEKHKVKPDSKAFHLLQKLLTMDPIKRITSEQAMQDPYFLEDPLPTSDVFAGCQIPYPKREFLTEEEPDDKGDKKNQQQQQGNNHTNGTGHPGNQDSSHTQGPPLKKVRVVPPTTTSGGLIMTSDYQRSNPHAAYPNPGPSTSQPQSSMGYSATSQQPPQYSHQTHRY
CDK8, sequence (P24863 whole entry partner): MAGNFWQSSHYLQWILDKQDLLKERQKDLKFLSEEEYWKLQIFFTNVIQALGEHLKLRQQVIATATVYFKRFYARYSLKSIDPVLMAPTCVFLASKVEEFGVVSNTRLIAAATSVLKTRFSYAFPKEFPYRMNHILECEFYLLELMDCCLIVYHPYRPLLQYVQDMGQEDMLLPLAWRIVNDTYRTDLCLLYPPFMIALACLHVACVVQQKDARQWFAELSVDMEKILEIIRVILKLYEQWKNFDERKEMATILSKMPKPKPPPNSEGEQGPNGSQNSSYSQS

| Structure (SMILES) | induction of CDK8 degradation by single agents |
| --- | --- |
| N#Cc1ccc2nccc(NCCc3ccc4cc(C(=O)N5CCN(C(=O)CCOCCOCCOCCOCCNc6cccc7c6C(=O)N(C6CCC(=O)NC6=O)C7=O)CC5)ccc4c3)c2c1 (stereo not shown) [HP8580, 4-[2-[6-[4-[3-[2-[2-[2-[2-[[2-(2,6-dioxo-3-piperidyl)-1,3-dioxo-isoindolin-4-yl]amino]ethoxy]ethoxy]ethoxy]ethoxy]propanoyl]piperazine-1-carbonyl]-2-naphthyl]ethylamino]quinoline-6-carbonitrile] | induced CDK8 degradation |

Same assay, conditions: HEK-293; with MG132 5 μM, pomalidomide 5 μM or Senexin C 5 μM

| Structure (SMILES) | effect of co-treatment on HP8580-mediated CDK8 degradation |
| --- | --- |
| N#Cc1ccc2nccc(NCCc3ccc4cc(C(=O)N5CCN(C(=O)CCOCCOCCOCCOCCNc6cccc7c6C(=O)N(C6CCC(=O)NC6=O)C7=O)CC5)ccc4c3)c2c1 (stereo not shown) [HP8580, 4-[2-[6-[4-[3-[2-[2-[2-[2-[[2-(2,6-dioxo-3-piperidyl)-1,3-dioxo-isoindolin-4-yl]amino]ethoxy]ethoxy]ethoxy]ethoxy]propanoyl]piperazine-1-carbonyl]-2-naphthyl]ethylamino]quinoline-6-carbonitrile] | reversed by proteasome inhibition with MG132 as well as by competition with pomalidomide or Senexin C |

Same assay, conditions: HEK-293 cells, 24 hours, tested at 1 μM

| Structure (SMILES) | % CDK8 remaining [%] |
| --- | --- |
| Cc1ncsc1-c1ccc(CNC(=O)[C@@H]2C[C@@H](O)CN2C(=O)[C@@H](NC(=O)CCCCCCCCC(=O)N2CCN(C(=O)c3ccc4cc(CCNc5ccnc6ccc(C#N)cc56)ccc4c3)CC2)C(C)(C)C)cc1 (racemic) [IA7862, rac-(2S,4R)-4-hydroxy-N-[[4-(4-methylthiazol-5-yl)phenyl]methyl]-1-[rac-(2S)-2-[[10-[4-[6-[2-[(6-cyano-4-quinolyl)amino]ethyl]naphthalene-2-carbonyl]piperazin-1-yl]-10-oxo-decanoyl]amino]-3,3-dimethyl-butanoyl]pyrrolidine-2-carboxamide] | 69 |
| CN(CCCNC(=O)CCOCCOCCOCCOCCNc1cccc2c1C(=O)N(C1CCC(=O)NC1=O)C2=O)C(=O)c1ccc(N2CCCN(c3ccnc4sc(C(N)=O)c(N)c34)CC2)cc1 (stereo not shown) [HP8553] | 74 |
| CN(CCCNC(=O)CCOCCOCCOCCNc1cccc2c1C(=O)N(C1CCC(=O)NC1=O)C2=O)C(=O)c1ccc(N2CCCN(c3ccnc4sc(C(N)=O)c(N)c34)CC2)cc1 (stereo not shown) [HP8575, 3-amino-4-[4-[4-[3-[3-[2-[2-[2-[[2-(2,6-dioxo-3-piperidyl)-1,3-dioxo-isoindolin-4-yl]amino]ethoxy]ethoxy]ethoxy]propanoylamino]propyl-methyl-carbamoyl]phenyl]-1,4-diazepan-1-yl]thieno[2,3-b]pyridine-2-carboxamide] | 77 |
| CN(CCCNC(=O)CCOCCOCCNc1cccc2c1C(=O)N(C1CCC(=O)NC1=O)C2=O)C(=O)c1ccc(N2CCCN(c3ccnc4sc(C(N)=O)c(N)c34)CC2)cc1 (stereo not shown) [HP8578, 3-amino-4-[4-[4-[3-[3-[2-[2-[[2-(2,6-dioxo-3-piperidyl)-1,3-dioxo-isoindolin-4-yl]amino]ethoxy]ethoxy]propanoylamino]propyl-methyl-carbamoyl]phenyl]-1,4-diazepan-1-yl]thieno[2,3-b]pyridine-2-carboxamide] | 82 |
| N#Cc1ccc2nccc(NCCc3ccc4cc(C(=O)N5CCN(C(=O)CCOCCOCCNc6cccc7c6C(=O)N(C6CCC(=O)NC6=O)C7=O)CC5)ccc4c3)c2c1 (stereo not shown) [HV5958, 4-[2-[6-[4-[3-[2-[2-[[2-(2,6-dioxo-3-piperidyl)-1,3-dioxo-isoindolin-4-yl]amino]ethoxy]ethoxy]propanoyl]piperazine-1-carbonyl]-2-naphthyl]ethylamino]quinoline-6-carbonitrile] | 27 |
| CN1C(=O)CCC(N2C(=O)c3cccc(NCCOCCOCCOCCOCCC(=O)N4CCN(C(=O)c5ccc6cc(CCNc7ccnc8ccc(C#N)cc78)ccc6c5)CC4)c3C2=O)C1=O (stereo not shown) [IA7803, 4-[2-[6-[4-[3-[2-[2-[2-[2-[[2-(1-methyl-2,6-dioxo-3-piperidyl)-1,3-dioxo-isoindolin-4-yl]amino]ethoxy]ethoxy]ethoxy]ethoxy]propanoyl]piperazine-1-carbonyl]-2-naphthyl]ethylamino]quinoline-6-carbonitrile] | 100 |
| Cc1ncsc1-c1ccc(CNC(=O)[C@@H]2C[C@@H](O)CN2C(=O)[C@@H](NC(=O)CCOCCOCCOCCOCCC(=O)N2CCN(C(=O)c3ccc4cc(CCNc5ccnc6ccc(C#N)cc56)ccc4c3)CC2)C(C)(C)C)cc1 [IA7807, (2S,4R)-1-((S)-2-(tert-butyl)-19-(4-(6-(2-((6-cyanoquinolin-4-yl)amino)ethyl)-2-naphthoyl)piperazin-1-yl)-4,19-dioxo-7,10,13,16-tetraoxa-3-azanonadecanoyl)-4-hydroxy-N-(4-(4-methylthiazol-5-yl)benzyl) pyrrolidine-2-carboxamide] | 100 |
| CN(CCCNC(=O)CCOCCOCCOCCOCCOCCOCCNc1cccc2c1C(=O)N(C1CCC(=O)NC1=O)C2=O)C(=O)c1ccc(N2CCCN(c3ccnc4sc(C(N)=O)c(N)c34)CC2)cc1 (stereo not shown) [IA7814, 3-amino-4-[4-[4-[3-[3-[2-[2-[2-[2-[2-[2-[[2-(2,6-dioxo-3-piperidyl)-1,3-dioxo-isoindolin-4-yl]amino]ethoxy]ethoxy]ethoxy]ethoxy]ethoxy]ethoxy]propanoylamino]propyl-methyl-carbamoyl]phenyl]-1,4-diazepan-1-yl]thieno[2,3-b]pyridine-2-carboxamide] | 59 |
| N#Cc1ccc2nccc(NCCc3ccc4cc(C(=O)N5CCN(C(=O)CCOCCOCCOCCNC(=O)CCNc6cccc7c6C(=O)N(C6CCC(=O)NC6=O)C7=O)CC5)ccc4c3)c2c1 (stereo not shown) [IA7830, N-[2-[2-[2-[3-[4-[6-[2-[(6-cyano-4-quinolyl)amino]ethyl]naphthalene-2-carbonyl]piperazin-1-yl]-3-oxo-propoxy]ethoxy]ethoxy]ethyl]-3-[[2-(2,6-dioxo-3-piperidyl)-1,3-dioxo-isoindolin-4-yl]amino]propanamide] | 65 |

Now from value to compound:

| % CDK8 remaining [%] | Structure (SMILES) |
| --- | --- |
| 29 | N#Cc1ccc2nccc(NCCc3ccc4cc(C(=O)N5CCN(CCCNC(=O)CCOCCOCCOCCOCCNc6cccc7c6C(=O)N(C6CCC(=O)NC6=O)C7=O)CC5)ccc4c3)c2c1 (stereo not shown) [HP8579] |
| 20 | N#Cc1ccc2nccc(NCCc3ccc4cc(C(=O)N5CCN(C(=O)CCOCCOCCOCCOCCNc6cccc7c6C(=O)N(C6CCC(=O)NC6=O)C7=O)CC5)ccc4c3)c2c1 (stereo not shown) [HP8580, 4-[2-[6-[4-[3-[2-[2-[2-[2-[[2-(2,6-dioxo-3-piperidyl)-1,3-dioxo-isoindolin-4-yl]amino]ethoxy]ethoxy]ethoxy]ethoxy]propanoyl]piperazine-1-carbonyl]-2-naphthyl]ethylamino]quinoline-6-carbonitrile] |
| 36 | CN(CCCNC(=O)CCOCCOCCOCCOCCNc1cccc2c1C(=O)N(C1CCC(=O)NC1=O)C2=O)C(=O)c1ccc2cc(CCNc3ccnc4ccc(C#N)cc34)ccc2c1 (stereo not shown) [HP8581, 6-[2-[(6-cyano-4-quinolyl)amino]ethyl]-N-[3-[3-[2-[2-[2-[2-[[2-(2,6-dioxo-3-piperidyl)-1,3-dioxo-isoindolin-4-yl]amino]ethoxy]ethoxy]ethoxy]ethoxy]propanoylamino]propyl]-N-methyl-naphthalene-2-carboxamide] |
| 21 | N#Cc1ccc2nccc(NCCc3ccc4cc(C(=O)N5CCN(C(=O)CCOCCOCCOCCNc6cccc7c6C(=O)N(C6CCC(=O)NC6=O)C7=O)CC5)ccc4c3)c2c1 (stereo not shown) [HV5957, 4-[2-[6-[4-[3-[2-[2-[2-[[2-(2,6-dioxo-3-piperidyl)-1,3-dioxo-isoindolin-4-yl]amino]ethoxy]ethoxy]ethoxy]propanoyl]piperazine-1-carbonyl]-2-naphthyl]ethylamino]quinoline-6-carbonitrile] |
| 29 | N#Cc1ccc2nccc(NCCc3ccc4cc(C(=O)N5CCN(C(=O)CCOCCOCCOCCOCCOCCNc6cccc7c6C(=O)N(C6CCC(=O)NC6=O)C7=O)CC5)ccc4c3)c2c1 (stereo not shown) [IA7812, 4-[2-[6-[4-[3-[2-[2-[2-[2-[2-[[2-(2,6-dioxo-3-piperidyl)-1,3-dioxo-isoindolin-4-yl]amino]ethoxy]ethoxy]ethoxy]ethoxy]ethoxy]propanoyl]piperazine-1-carbonyl]-2-naphthyl]ethylamino]quinoline-6-carbonitrile] |
| 28 | N#Cc1ccc2nccc(NCCc3ccc4cc(C(=O)N5CCN(C(=O)CCOCCOCCOCCOCCOCCOCCNc6cccc7c6C(=O)N(C6CCC(=O)NC6=O)C7=O)CC5)ccc4c3)c2c1 (stereo not shown) [IA7813, 4-[2-[6-[4-[3-[2-[2-[2-[2-[2-[2-[[2-(2,6-dioxo-3-piperidyl)-1,3-dioxo-isoindolin-4-yl]amino]ethoxy]ethoxy]ethoxy]ethoxy]ethoxy]ethoxy]propanoyl]piperazine-1-carbonyl]-2-naphthyl]ethylamino]quinoline-6-carbonitrile] |
| 66 | N#Cc1ccc2nccc(NCCc3ccc4cc(C(=O)N5CCN(C(=O)CCNC(=O)CCOCCOCCOCCNc6cccc7c6C(=O)N(C6CCC(=O)NC6=O)C7=O)CC5)ccc4c3)c2c1 (stereo not shown) [IA7819, N-[3-[4-[6-[2-[(6-cyano-4-quinolyl)amino]ethyl]naphthalene-2-carbonyl]piperazin-1-yl]-3-oxo-propyl]-3-[2-[2-[2-[[2-(2,6-dioxo-3-piperidyl)-1,3-dioxo-isoindolin-4-yl]amino]ethoxy]ethoxy]ethoxy]propanamide] |
| 65 | N#Cc1ccc2nccc(NCCc3ccc4cc(C(=O)N5CCN(C(=O)CCNC(=O)CCOCCOCCOCCOCCNc6cccc7c6C(=O)N(C6CCC(=O)NC6=O)C7=O)CC5)ccc4c3)c2c1 (stereo not shown) [IA7822, N-[3-[4-[6-[2-[(6-cyano-4-quinolyl)amino]ethyl]naphthalene-2-carbonyl]piperazin-1-yl]-3-oxo-propyl]-3-[2-[2-[2-[2-[[2-(2,6-dioxo-3-piperidyl)-1,3-dioxo-isoindolin-4-yl]amino]ethoxy]ethoxy]ethoxy]ethoxy]propanamide] |
